In ChEMBL document CHEMBL1201862, “PubChem BioAssay data set” (2004):
Where “and” joins values, the source holds several entries; their conditions need not be identical. Equal entries are not always repeated.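 All cell lines were grown in 96-well plates and treated with compound for 48 hours. GI50 marks 50% less growth.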 Calls of active or inactive are those of the source. Rule as the data show it: active = GI50 up to about 1.1 µM and inactive = higher.

What was measured:
Experiment in all cases: NCI tumour cell line growth inhibition, 48 h
MDA-MB-231 = tested on: MDA-MB-231
OVCAR-4 = tested on: OVCAR-4
ACHN = tested on: ACHN
UO-31 = tested on: UO-31
LOX IMVI = tested on: LOX IMVI
NCI-H226 = tested on: NCI-H226
PC-3 = tested on: PC-3
UACC-257 = tested on: UACC-257
SR = tested on: SR
M14 = tested on: M14
SN12C = tested on: SN12C
OVCAR-8 = tested on: OVCAR-8
SW-620 = tested on: SW-620
MCF7 = tested on: MCF7
HCC 2998 = tested on: HCC 2998
OVCAR-3 = tested on: OVCAR-3
Malme-3M = tested on: Malme-3M
KM12 = tested on: KM12
DU-145 = tested on: DU-145
SF-539 = tested on: SF-539
MDA-N = tested on: MDA-N
HT-29 = tested on: HT-29
Hs-578T = tested on: Hs-578T
CAKI-1 = tested on: CAKI-1
HCT-15 = tested on: HCT-15
NCI-H460 = tested on: NCI-H460
HCT-116 = tested on: HCT-116
A549 = tested on: A549
T47D = tested on: T47D
SK-MEL-28 = tested on: SK-MEL-28
HL-60 = tested on: HL-60
SK-MEL-5 = tested on: SK-MEL-5
OVCAR-5 = tested on: OVCAR-5
K562 = tested on: K562
MOLT-4 = tested on: MOLT-4
RPMI-8226 = tested on: RPMI-8226
SK-OV-3 = tested on: SK-OV-3
RXF 393 = tested on: RXF 393
COLO 205 = tested on: COLO 205
786-0 = tested on: 786-0
CCRF-CEM = tested on: CCRF-CEM
NCI-H23 = tested on: NCI-H23
SNB-75 = tested on: SNB-75
TK-10 = tested on: TK-10
IGROV-1 = tested on: IGROV-1
SF-295 = tested on: SF-295
UACC-62 = tested on: UACC-62
HOP-62 = tested on: HOP-62
SF-268 = tested on: SF-268
EKVX = tested on: EKVX
A498 = tested on: A498
NCI-H522 = tested on: NCI-H522
SK-MEL-2 = tested on: SK-MEL-2
MDA-MB-435 = tested on: MDA-MB-435
SNB-19 = tested on: SNB-19

Compound: N#Cc1ccc(-c2ccc(Cl)cc2)n(C2OC(CO)C(O)C(O)C2O)c1=S (centres undefined)
- GI50 (MDA-MB-231): > 100 µM (inactive)
- GI50 (OVCAR-4): > 100 µM (inactive)
- GI50 (ACHN): > 100 µM (inactive)
- GI50 (UO-31): > 100 µM (inactive)
- GI50 (LOX IMVI): > 100 µM (inactive)
- GI50 (NCI-H226): > 100 µM (inactive)
- GI50 (PC-3): > 100 µM (inactive)
- GI50 (UACC-257): > 100 µM (inactive)
- GI50 (SR): > 100 µM (inactive)
- GI50 (M14): > 100 µM (inactive)
- GI50 (SN12C): > 100 µM (inactive)
- GI50 (OVCAR-8): > 100 µM (inactive)
- GI50 (SW-620): > 100 µM (inactive)
- GI50 (MCF7): 62.4 µM (inactive)
- GI50 (HCC 2998): > 100 µM (inactive)
- GI50 (OVCAR-3): > 100 µM (inactive)
- GI50 (Malme-3M): > 100 µM (inactive)
- GI50 (KM12): > 100 µM (inactive)
- GI50 (DU-145): > 100 µM (inactive)
- GI50 (SF-539): > 100 µM (inactive)
- GI50 (MDA-N): > 100 µM (inactive)
- GI50 (HT-29): > 100 µM (inactive)
- GI50 (Hs-578T): > 100 µM (inactive)
- GI50 (CAKI-1): > 100 µM (inactive)
- GI50 (HCT-15): > 100 µM
- GI50 (NCI-H460): > 100 µM (inactive) and 86.5 µM (inactive)
- GI50 (HCT-116): > 100 µM (inactive) and 86.1 µM (inactive)
- GI50 (A549): > 100 µM (inactive)
- GI50 (T47D): > 100 µM (inactive)
- GI50 (SK-MEL-28): > 100 µM (inactive)
- GI50 (HL-60): > 100 µM (inactive)
- GI50 (SK-MEL-5): > 100 µM (inactive) and 98.6 µM (inactive)
- GI50 (OVCAR-5): > 100 µM (inactive)
- GI50 (K562): > 100 µM (inactive)
- GI50 (MOLT-4): > 100 µM (inactive)
- GI50 (RPMI-8226): > 100 µM (inactive)

Compound: CCOc1ccc(-c2nc(-c3oc4ccccc4c(=O)c3OC(C)=O)cs2)cc1
- GI50 (MDA-MB-231): > 10 µM (inactive)
- GI50 (SK-OV-3): > 10 µM (inactive)
- GI50 (LOX IMVI): > 10 µM (inactive)
- GI50 (RXF 393): 2.62 µM (inactive)
- GI50 (COLO 205): > 10 µM (inactive)
- GI50 (PC-3): > 10 µM (inactive)
- GI50 (UACC-257): > 10 µM (inactive)
- GI50 (SR): > 10 µM (inactive)
- GI50 (M14): > 10 µM (inactive)
- GI50 (786-0): > 10 µM (inactive)
- GI50 (SN12C): 9.93 µM (inactive)
- GI50 (OVCAR-8): > 10 µM (inactive)
- GI50 (CCRF-CEM): 7.57 µM (inactive)
- GI50 (SW-620): > 10 µM (inactive)
- GI50 (MCF7): 3.52 µM (inactive)
- GI50 (HCC 2998): > 10 µM (inactive)
- GI50 (NCI-H23): > 10 µM (inactive)
- GI50 (Malme-3M): > 10 µM (inactive)
- GI50 (SNB-75): 8.97 µM (inactive)
- GI50 (TK-10): > 10 µM (inactive)
- GI50 (IGROV-1): > 10 µM (inactive)
- GI50 (KM12): > 10 µM (inactive)
- GI50 (DU-145): > 10 µM (inactive)
- GI50 (MDA-N): 6.18 µM (inactive)
- GI50 (HT-29): > 10 µM (inactive)
- GI50 (SF-295): > 10 µM (inactive)
- GI50 (CAKI-1): > 10 µM (inactive)
- GI50 (HCT-15): 7.13 µM
- GI50 (UACC-62): > 10 µM (inactive)
- GI50 (HOP-62): > 10 µM (inactive)
- GI50 (A549): > 10 µM (inactive)
- GI50 (T47D): > 10 µM (inactive)
- GI50 (SK-MEL-28): 6.71 µM (inactive)
- GI50 (HL-60): > 10 µM (inactive)
- GI50 (SK-MEL-5): > 10 µM (inactive)
- GI50 (K562): 5.5 µM (inactive)
- GI50 (MOLT-4): > 10 µM (inactive)
- GI50 (RPMI-8226): > 10 µM (inactive)
- GI50 (SF-268): 9.06 µM (inactive)
- GI50 (EKVX): > 10 µM (inactive)

Compound: O=[N+]([O-])c1ccc(/N=N/c2c(O)ccc3ccccc23)cc1
- GI50 (MDA-MB-231): > 100 µM (inactive)
- GI50 (A498): > 100 µM (inactive)
- GI50 (UO-31): > 100 µM (inactive) and 98.4 µM (inactive)
- GI50 (LOX IMVI): > 100 µM (inactive)
- GI50 (COLO 205): > 100 µM (inactive)
- GI50 (PC-3): 73.5 µM (inactive)
- GI50 (UACC-257): > 100 µM (inactive)
- GI50 (SR): > 22.2 µM (inactive) and 21.2 µM (inactive)
- GI50 (NCI-H522): 0.293 µM (active)
- GI50 (786-0): > 100 µM (inactive)
- GI50 (SN12C): > 100 µM (inactive)
- GI50 (SW-620): > 100 µM (inactive)
- GI50 (MCF7): > 100 µM (inactive)
- GI50 (HCC 2998): > 100 µM (inactive)
- GI50 (OVCAR-3): 50.5 µM (inactive)
- GI50 (SK-MEL-2): 84.9 µM (inactive)
- GI50 (IGROV-1): 19.4 µM (inactive) and > 32 µM (inactive)
- GI50 (MDA-MB-435): > 100 µM (inactive)
- GI50 (DU-145): > 100 µM (inactive)
- GI50 (SF-539): > 100 µM (inactive)
- GI50 (MDA-N): > 100 µM (inactive)
- GI50 (SNB-19): > 100 µM (inactive)
- GI50 (CAKI-1): > 100 µM (inactive)
- GI50 (HCT-15): > 100 µM
- GI50 (NCI-H460): > 100 µM (inactive)
- GI50 (HCT-116): > 100 µM (inactive)
- GI50 (T47D): > 100 µM (inactive)
- GI50 (SK-MEL-28): > 100 µM (inactive)
- GI50 (SK-MEL-5): > 100 µM (inactive)
- GI50 (OVCAR-5): > 100 µM (inactive) and 65.2 µM (inactive)
- GI50 (K562): > 100 µM (inactive)
- GI50 (MOLT-4): 95.1 µM (inactive)
- GI50 (RPMI-8226): > 100 µM (inactive)
